The values that follow come from PubChem BioAssay AID248 (DTP/NCI, 2004).

In the experiment the test system is L1210 leukemia ip in BDF1 mice, survival T/C. Description: NCI In Vivo Anticancer Drug Screen. Data for tumor model L1210 Leukemia (intraperitoneal) in B6D2F1 (BDF1) mice. Conditions: endpoint: mean survival time, higher = longer survival. A digest of the protocol: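 Tumor cells were implanted, animals were treated, and survival was followed. The result divides the treated measurement by the vehicle-control measurement.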

Setting [1] is: dose: 100.0 mg/kg/injection, schedule: Q01DX001 (ip), vehicle: saline.
[2] abbreviates: dose: 200.0 mg/kg/injection, schedule: Q01DX001 (ip), vehicle: saline.
[3] abbreviates: dose: 50.0 mg/kg/injection, schedule: Q01DX009 (ip), vehicle: Klucel (hydroxypropylcellulose) (HPC).
Where [4] appears, read: dose: 100.0 mg/kg/injection, schedule: Q01DX009 (ip), vehicle: Klucel (hydroxypropylcellulose) (HPC).
Where [5] appears, read: dose: 100.0 mg/kg/injection, schedule: Q01DX009 (ip), vehicle: saline with Tween-80.
The mark [6] stands for this setting: dose: 200.0 mg/kg/injection, schedule: Q01DX009 (ip), vehicle: saline with Tween-80.
Setting [7] is: dose: 100.0 mg/kg/injection, schedule: Q04DX003 (ip), vehicle: Klucel (hydroxypropylcellulose) (HPC).
Where [8] appears, read: dose: 200.0 mg/kg/injection, schedule: Q01DX009 (ip), vehicle: Klucel (hydroxypropylcellulose) (HPC).
Setting [9] is: dose: 200.0 mg/kg/injection, schedule: Q04DX003 (ip), vehicle: Klucel (hydroxypropylcellulose) (HPC).
Setting [10] is: dose: 400.0 mg/kg/injection, schedule: Q04DX003 (ip), vehicle: Klucel (hydroxypropylcellulose) (HPC).
Setting [11] is: dose: 400.0 mg/kg/injection, schedule: Q01DX009 (ip), vehicle: Klucel (hydroxypropylcellulose) (HPC).

Where “and” joins values, the source holds several entries; their conditions need not be identical. Equal entries are not always repeated. Inconclusive results and toxic doses are left out.

For the compound `CCOC(=O)c1ccc(OC2CCCCO2)c(OC2CCCCO2)c1` (configuration not stated), the T/C by setting is: (dose: 100.0 mg/kg/injection, schedule: Q04DX003 (ip), vehicle: saline with Tween-80) 98 % of control; (dose: 200.0 mg/kg/injection, schedule: Q04DX003 (ip), vehicle: saline with Tween-80) 98 % of control; (dose: 400.0 mg/kg/injection, schedule: Q04DX003 (ip), vehicle: saline with Tween-80) 98 % of control.
`N#CC1(C(N)=O)OC12CCS(=O)(=O)c1ccccc12` (configuration not stated): the T/C is 87 % of control under setting [1] and 94 % of control under setting [2].
As to `Nc1nc(=S)c2[nH]c(N=Nc3ccc(S(=O)(=O)Nc4cnc5ccccc5n4)cc3)nc2[nH]1`, the T/C was 112 % of control (dose: 25.0 mg/kg/injection, schedule: Q01DX009 (ip), vehicle: Klucel (hydroxypropylcellulose) (HPC)); 109 % of control under setting [3]; 91 % of control under setting [4].
On to `Cc1ccc(Cl)cc1NC(=O)Nc1cc(C(C)C)ccc1C`, for which the T/C reads like this: under setting [5], 93 % of control and 100 % of control; (dose: 100.0 mg/kg/injection, schedule: Q04DX002 (ip), vehicle: saline with Tween-80) 100 % of control and 90 % of control; under setting [6], 93 % of control and 91 % of control; (dose: 200.0 mg/kg/injection, schedule: Q04DX002 (ip), vehicle: saline with Tween-80) 93 % of control and 94 % of control; (dose: 400.0 mg/kg/injection, schedule: Q01DX009 (ip), vehicle: saline with Tween-80) 86 % of control; (dose: 400.0 mg/kg/injection, schedule: Q04DX002 (ip), vehicle: saline with Tween-80) 96 % of control and 101 % of control.
As for `CCCCOC(=O)C(N)Cc1ccc(OC)c(N(CCCl)CCCl)c1` (configuration not stated), the T/C is 93 % of control (dose: 0.6 mg/kg/injection, schedule: Q01DX009 (ip), vehicle: saline); 108 % of control (dose: 0.75 mg/kg/injection, schedule: Q01DX001 (ip), vehicle: saline); 191 % of control (dose: 1.3 mg/kg/injection, schedule: Q01DX009 (ip), vehicle: saline); 118 % of control (dose: 1.5 mg/kg/injection, schedule: Q01DX001 (ip), vehicle: saline); 162 % of control (dose: 2.0 mg/kg/injection, schedule: Q01DX009 (ip), vehicle: saline); 109 % of control (dose: 2.6 mg/kg/injection, schedule: Q01DX001 (ip), vehicle: saline). Also, the T/C reads like this: (dose: 3.0 mg/kg/injection, schedule: Q01DX009 (ip), vehicle: saline) 107 % of control; (dose: 6.0 mg/kg/injection, schedule: Q01DX001 (ip), vehicle: saline) 118 % of control; (dose: 12.0 mg/kg/injection, schedule: Q01DX001 (ip), vehicle: saline) 120 % of control.
On to `O=c1c2[nH]c3cccc(Cl)c3c2cnn1-c1ccc(F)cc1`, for which the T/C runs as follows: (dose: 100.0 mg/kg/injection, schedule: Q01DX001 (ip), vehicle: Klucel (hydroxypropylcellulose) (HPC)) 96 % of control; (dose: 200.0 mg/kg/injection, schedule: Q01DX001 (ip), vehicle: Klucel (hydroxypropylcellulose) (HPC)) 104 % of control; (dose: 400.0 mg/kg/injection, schedule: Q01DX001 (ip), vehicle: Klucel (hydroxypropylcellulose) (HPC)) 104 % of control.
Turning to `O=c1[nH]cnc2c1cnn2C1OC(CO)C(O)C1O` (configuration not stated), the T/C is 92 % of control (dose: 12.5 mg/kg/injection, schedule: Q01DX005 (ip), vehicle: water); 106 % of control (dose: 25.0 mg/kg/injection, schedule: Q01DX005 (ip), vehicle: water); 97 % of control (dose: 50.0 mg/kg/injection, schedule: Q01DX005 (ip), vehicle: water); 108 % of control (dose: 100.0 mg/kg/injection, schedule: Q01DX005 (ip), vehicle: water); 93 % of control (dose: 200.0 mg/kg/injection, schedule: Q01DX005 (ip), vehicle: water).
For the compound `Cc1cc(N=[N+]([O-])c2ccc(N)c(C)c2)ccc1N`, the T/C was 95 % of control under setting [1]; 91 % of control under setting [2]; 96 % of control (dose: 200.0 mg/kg/injection, schedule: Q01DX009 (ip), vehicle: saline); 93 % of control (dose: 400.0 mg/kg/injection, schedule: Q01DX001 (ip), vehicle: saline); 96 % of control (dose: 400.0 mg/kg/injection, schedule: Q01DX009 (ip), vehicle: saline).
As for `CC(=O)C1C=NCCN=CC(C(C)=O)C(C)=NCCCN=C1C.[Ni]` (configuration not stated), the T/C is, setting by setting: under setting [3], 101 % of control; under setting [4], 105 % of control; under setting [7], 100 % of control; under setting [8], 103 % of control; under setting [9], 95 % of control; under setting [10], 106 % of control.
Consider `CC[n+]1cccc(-c2ccc(NC(=O)/C=C/c3ccc(C(=O)Nc4ccc(-c5ccc[n+](CC)c5)cc4)cc3)cc2)c1`, for which the T/C is, setting by setting: (dose: 7.1 mg/kg/injection, schedule: Q01DX001 (ip), vehicle: carboxymethylcellulose (CMC)) 118 % of control; (dose: 12.5 mg/kg/injection, schedule: Q01DX Z (ip), vehicle: carboxymethylcellulose (CMC)) 241 % of control; (dose: 25.0 mg/kg/injection, schedule: Q01DX001 (ip), vehicle: carboxymethylcellulose (CMC)) 152 % of control and 157 % of control; (dose: 25.0 mg/kg/injection, schedule: Q01DX Z (ip), vehicle: carboxymethylcellulose (CMC)) 211 % of control; (dose: 50.0 mg/kg/injection, schedule: Q01DX001 (ip), vehicle: carboxymethylcellulose (CMC)) 202 % of control; (dose: 50.0 mg/kg/injection, schedule: Q01DX Z (ip), vehicle: carboxymethylcellulose (CMC)) 164 % of control. For the same compound, the T/C is 238 % of control (dose: 100.0 mg/kg/injection, schedule: Q01DX001 (ip), vehicle: carboxymethylcellulose (CMC)); 263 % of control (dose: 200.0 mg/kg/injection, schedule: Q01DX001 (ip), vehicle: carboxymethylcellulose (CMC)); 120 % of control (dose: 300.0 mg/kg/injection, schedule: Q01DX001 (ip), vehicle: carboxymethylcellulose (CMC)); 124 % of control (dose: 450.0 mg/kg/injection, schedule: Q01DX001 (ip), vehicle: carboxymethylcellulose (CMC)); 107 % of control (dose: 675.0 mg/kg/injection, schedule: Q01DX001 (ip), vehicle: carboxymethylcellulose (CMC)).
As to `Nc1ccc(N)cc1` (tested in a mixture with another compound), the T/C is, setting by setting: (dose: 50.0 mg/kg/injection, schedule: Q01DX009 (ip), vehicle: DMSO) 103 % of control; (dose: 100.0 mg/kg/injection, schedule: Q01DX009 (ip), vehicle: DMSO) 91 % of control; (dose: 100.0 mg/kg/injection, schedule: Q04DX003 (ip), vehicle: DMSO) 91 % of control; (dose: 200.0 mg/kg/injection, schedule: Q04DX003 (ip), vehicle: DMSO) 94 % of control.
`O=S(=O)(/C=C\c1ccccc1)CBr`: the T/C by setting is: (dose: 100.0 mg/kg/injection, schedule: Q04DX002 (ip), vehicle: Klucel (hydroxypropylcellulose) (HPC)) 100 % of control; (dose: 200.0 mg/kg/injection, schedule: Q04DX002 (ip), vehicle: Klucel (hydroxypropylcellulose) (HPC)) 97 % of control; (dose: 400.0 mg/kg/injection, schedule: Q04DX002 (ip), vehicle: Klucel (hydroxypropylcellulose) (HPC)) 106 % of control.
`CCCCCCCCCCCCCCCCc1c(C)ncn(C)c1=O`: the T/C by setting is: under setting [7], 98 % of control; under setting [9], 101 % of control; under setting [10], 95 % of control.
Regarding `CC1(CC(=O)O)CCc2ccccc2C1=O` (configuration not stated), the T/C was 98 % of control under setting [4]; 98 % of control under setting [7]; 94 % of control under setting [8]; 96 % of control under setting [9]; 100 % of control under setting [11]; 102 % of control under setting [10].
With `O=C(Nc1cc(C(F)(F)F)ccc1Cl)c1ccccc1`, the T/C reads like this: under setting [4], 90 % of control; (dose: 100.0 mg/kg/injection, schedule: Q04DX003 (ip), vehicle: saline) 117 % of control; under setting [8], 108 % of control; (dose: 200.0 mg/kg/injection, schedule: Q04DX003 (ip), vehicle: saline) 101 % of control; under setting [11], 111 % of control; (dose: 400.0 mg/kg/injection, schedule: Q04DX003 (ip), vehicle: saline) 103 % of control.
On to `CCOC(=O)c1ccc(NC(=O)Sc2ccc(C(C)(C)C)cc2C)cc1`, for which the T/C reads like this: under setting [5], 96 % of control; under setting [6], 100 % of control.
